The values that follow come from article PMC9298260, “An Immunomodulatory Peptide Dendrimer Inspired from Glatiramer Acetate” (Angewandte Chemie (International Ed. in English), 2021).

This assay has as its system IL-1Ra release from human primary monocytes. Description: IL-1Ra release from human primary monocytes, immunoassay (ELISA) of supernatants. Format: cell-based. On the set-up: key: +: Ability to induce IL-1Ra on primary monocytes after 48 h of incubation; Ability to induce IL-1Ra on primary monocytes after 48 h of incubation. Particulars: for IL-1Ra: ability to induce IL-1Ra on primary monocytes after 48 h of incubation, class + / -; for Act. (ability to induce IL-1Ra): Table S1 initial library, primary monocytes, 48 h. The method, then:
As an activity screen we focused on interleukin‐1 receptor antagonist (IL‐1Ra), a cytokine released by circulating antigen presenting cells (APC) in response to GA.[15, 35] […] To test our dendrimers, we quantified by immunoassay the release of IL‐1Ra from human primary monocytes of healthy donors, an easily accessible type of APC, stimulated or not by addition of lipopolysaccharide (LPS), which in our hands provided a reliable read‐out.[15] We tested at defined weight/volume (25 and 50 μg mL^−1 compound as typically reported for GA)[15, 35] to account for a possible activity increase with MW as often observed with dendrimers when using molarity. In the initial screen the levels of secreted IL‐1Ra remained below 1 ng mL^−1 for all the smaller test compounds as well as with the linear peptide analogs of GA.
Figure 2 Cytokine level of IL‐1Ra in supernatants of primary human monocytes of healthy donors treated with peptide dendrimers, evaluated by ELISA (bars, left vertical axis) and mRNA levels (▴, right vertical axis). […] For mRNA levels evaluation, 2×10^6 cells 3 mL^−1 in 6 well plates were incubated with 50 μg mL^−1 dendrimer or GA for 18 h. […]
Enzyme-linked immunosorbent assay (ELISA)
Monocytes (5×10^4 cells/200 μL well; 96-well plates) were preincubated for 1 h with or without compounds in RPMI-1640 medium supplemented with 10% heat-inactivated FBS, 50 μg/mL streptomycin, 50 U/mL penicillin, 2 mM L-glutamine, and 5 μg/mL polymyxin B sulfate and then cultured for 48 h in the presence or absence of LPS (100 ng/mL) (2). The production of IL-1Ra was measured in culture supernatants by commercially available enzyme immunoassay according to manufacture protocol.
Figure S2. Cytokine level of IL-1Ra in supernatants of monocytes for active dendrimers and analogues evaluated by ELISA assay on primary human monocytes of healthy donors. 5×10^4 cells/200 µL in 96 well plates, were incubated with dendrimers or GA as a control for 48 h in presence or absence of LPS (100 ng/mL), in a range of concentrations (50-25 µg/mL) (mean ± SD, n = 2 different experiments). The results are present as the difference between each sample and the non-treated sample to take into account the difference between base line for each donor.
Figure S3. Cytokine level of IL-1Ra in supernatants of monocytes for active dendrimers and […]
presence or absence of LPS (100 ng/mL), in a range of concentrations (100-12.5 µg/mL) (mean ± SD, n = 3 different experiments). […]
In general terms: ELISA stands for enzyme-linked immunosorbent assay.

For the substance (KYA)4(KAE)2KAEYKCA-NH2 [compound 23], the IL-1Ra result is on record as “-”. Take (AcAKE)4(KKAY)2KYKY-NH2 [Ac22]: the IL-1Ra entry was “-”. The same measure, in the same setting: then (ClAcAKE)4(KKAY)2KYKY-NH2 [ClAc22], with “-”.

As for (ClAcAKA)8(KYEK)4(KEKA)2KAKY-OH [ClAc3], the “Act. (ability to induce IL-1Ra)” value is “-” and the IL-1Ra result is “-”. On to (AcAKA)4(KEY)2KYKK-NH2 [Ac15], for which the “Act. (ability to induce IL-1Ra)” value is “-” and the IL-1Ra result is listed as “-”.

Regarding (AcKYA)4(KEA)2KKKA-OH [Ac14], the “Act. (ability to induce IL-1Ra)” value is “-” and the IL-1Ra entry was “-”. Consider (AcAKA)4(KEK)2KYEY-OH [Ac11], for which the “Act. (ability to induce IL-1Ra)” value is recorded as “-” and the IL-1Ra entry was “-”. With (AcKAA)4(KYYE)2KAY-NH2 [Ac19], the IL-1Ra result was “-”. Still for that read-out and setting: in the case of (AcKEAKY)4(KKYEA)2KEKAYKA-NH2 [Ac27] it was “-”; in that of “(ClAcKEAKY)4(KKYEA)2KEKAYKA-NH2 [ClAc27]”, “-”. As to (AcAKA)4(KKEY)2KE-OH [Ac10], the “Act. (ability to induce IL-1Ra)” value is “-” and the IL-1Ra result is given as “-”. (ClAcAKA)4(KKEY)2KE-OH [ClAc10]: the “Act. (ability to induce IL-1Ra)” value is listed as “-” and the IL-1Ra entry was “-”. For the substance (ClAcK)4(KAYE)2KAKYAEA-NH2) [ClAc13], the “Act. (ability to induce IL-1Ra)” value is “-” and the IL-1Ra result is listed as “-”. In the case of (ClAcKA)4(KAYE)2KK-OH [ClAc6], the “Act. (ability to induce IL-1Ra)” value is given as “-” and the IL-1Ra result is given as “-”. Turning to “(YKAKAKY)4(KEAKAKY)2KAKEYEY-OH [compound 29]”, the IL-1Ra entry was “-”. As for (AcKAE)4(KAEK)2KYYA-OH [Ac18], the “Act. (ability to induce IL-1Ra)” value is on record as “-” and the IL-1Ra result is reported as “-”.

With “(AK)4(KAEAKAKE)2KKEYEYC(Coumarin)A-NH2 [26Coum]”, the IL-1Ra entry is given as “-”.

As for (AcAYK)4(KE)2KKAA-OH [Ac9], the “Act. (ability to induce IL-1Ra)” value is “-” and the IL-1Ra result is “-”. For (ClAcAKA)4(KEK)2KYEY-OH [ClAc11], the “Act. (ability to induce IL-1Ra)” value was “-” and the IL-1Ra result is on record as “-”. For the substance (FumAKA)4(KEY)2KYKK-NH2 [Fum15], the “Act. (ability to induce IL-1Ra)” value is “-” and the IL-1Ra result is “-”. Turning to (K)4(KAYAEY)2KAKAEYA-NH2 [compound 17], the “Act. (ability to induce IL-1Ra)” value is recorded as “-” and the IL-1Ra result is reported as “-”.

In the case of (ClAcKA)4(KEYA)2KKAK-OH [ClAc7], the “Act. (ability to induce IL-1Ra)” value was “-” and the IL-1Ra result is given as “-”. As to (ClAcK)4(KEAKAKEY)2KAKEYEY-OH [ClAc25], the IL-1Ra entry was “-”. In the case of (ClAcKAE)4(KAEK)2KYYA-OH [ClAc18], the “Act. (ability to induce IL-1Ra)” value was “-” and the IL-1Ra result is “-”.

With (AcAKA)8(KYEK)4(KEKA)2KAKY-OH [Ac3], the “Act. (ability to induce IL-1Ra)” value is given as “-” and the IL-1Ra entry is “-”. Turning to (ClAcKYA)4(KEA)2KKKA-OH [ClAc14], the “Act. (ability to induce IL-1Ra)” value is “-” and the IL-1Ra result was “-”. For the substance (AcAKE)4(KAYA)2KKKK-NH2 [Ac16], the “Act. (ability to induce IL-1Ra)” value is reported as “-” and the IL-1Ra entry is on record as “-”. Take (ClAcKAA)4(KYYE)2KAY-NH2 [AcCl19]: the IL-1Ra result is “-”.

For the substance (KAA)4(KEY)2KAKEYEYA-NH2 [compound 24], the IL-1Ra entry is “-”. On the same count and under the same terms, then “(AK)4(KAEAKAKE)2KKEYEYCA-NH2 [compound 26]”, with “-”. Take (FumAKE)4(KAYA)2KKKK-NH2 [Fum16]: the “Act. (ability to induce IL-1Ra)” value is recorded as “-” and the IL-1Ra result is listed as “-”. “(KAA)8(KKAKAK)4(KAAKKY)2KEKAKCA-OH [compound 30]”: the IL-1Ra entry is given as “-”.

Turning to (AcKAK)4(KAEY)2KAEA-OH [Ac20], the IL-1Ra entry was “-”.
